Assay results as given in US20240174727A1, “LONG-ACTING NATRIURETIC PEPTIDES AND USES THEREOF” (Eli Lilly and Company, priority 2022, published 2024).
Numbered stars: 1 amine (or outer) side, 2 acyl side, 3 side chain; on linkers, the order of the positions; unused ones are H or OH. Bridge positions count the residues as written; N and C are the ends. Square brackets hold non-standard residues; d marks the D form. * marks the point of attachment. C20 diacid = O=C(O)CCCCCCCCCCCCCCCCCCC(=O)*; γGlu = O=C(O)[C@H](CCC(=O)[*:2])N[*:1]; Dap = NC[C@H](N)C(=O)O; CH2 = C([*:1])[*:2]

Test system: plasma cGMP
Test: In vivo monkey studies, plasma cGMP ELISA
Parameters: species or system male cynomolgus monkeys
Settings: for Net cGMP (nM) Change from Baseline 0.083 h: 0.083 h postdose; for Net cGMP (nM) Change from Baseline 0.083 h / Net cGMP (nM) Change from Baseline 0.25 h / Net cGMP (nM) Change from Baseline 0.5 h / Net cGMP (nM) Change from Baseline 1 h / Net cGMP (nM) Change from Baseline 2 h / Net cGMP (nM) Change from Baseline 4 h / Net cGMP (nM) Change from Baseline 8 h / Net cGMP (nM) Change from Baseline 12 h / Net cGMP (nM) Change from Baseline 24 h / Net cGMP (nM) Change from Baseline 36 h / Net cGMP (nM) Change from Baseline 48 h / Net cGMP (nM) Change from Baseline 72 h / Net cGMP (nM) Change from Baseline 96 h / Net cGMP (nM) Change from Baseline 120 h / Net cGMP (nM) Change from Baseline 144 h / Net cGMP (nM) Change from Baseline 168 h: monkey plasma; for Net cGMP (nM) Change from Baseline 0.25 h: 0.25 h postdose; for Net cGMP (nM) Change from Baseline 0.5 h: 0.5 h postdose; for Net cGMP (nM) Change from Baseline 1 h: 1 h postdose; for Net cGMP (nM) Change from Baseline 2 h: 2 h postdose; for Net cGMP (nM) Change from Baseline 4 h: 4 h postdose; for Net cGMP (nM) Change from Baseline 8 h: 8 h postdose; for Net cGMP (nM) Change from Baseline 12 h: 12 h postdose; for Net cGMP (nM) Change from Baseline 24 h: 24 h postdose; for Net cGMP (nM) Change from Baseline 36 h: 36 h postdose; for Net cGMP (nM) Change from Baseline 48 h: 48 h postdose; for Net cGMP (nM) Change from Baseline 72 h: 72 h postdose; for Net cGMP (nM) Change from Baseline 96 h: 96 h postdose; for Net cGMP (nM) Change from Baseline 120 h: 120 h postdose; for Net cGMP (nM) Change from Baseline 144 h: 144 h postdose; for Net cGMP (nM) Change from Baseline 168 h: 168 h postdose; for net cGMP levels (result in words): monkeys, single SC dose, plasma
Protocol: In vivo monkey studies were conducted as described in detail below. Young adult-to-adult male cynomolgus monkeys were given a single dose subcutaneously (SC). Blood was collected predose and at various pre-determined timepoints throughout the study period. Aliquot of cynomolgus monkey plasma was received for cyclic cGMP (cGMP) measurement and stored at −80° C. prior to use.
Control plasma was made for determining the recovery rate of spike-in cGMP using Enzo cGMP complete ELISA kit (Enzo Life Sciences, Inc, Farmingdale, NY, cat no. ADI-901-164). Briefly, blood from male Sprague Dawley rats (Inotiv, Indianapolis, IN), about 7 months old, was collected in a BD Vacutainer EDTA tube (Becton Dickinson, Franklin Lakes, NJ, cat no. BD-367856) with volume of approximate 4 mL through retro orbital bleeding. Plasma was prepared by spinning the tube in an Eppendorf Refrigerated Centrifuge 5810R (Brinkman Instruments, Inc, Westbury, NY) at 3500 rpm (3000×g) for 10 min at 4° C. Plasma was collected as Positive Control plasma. Cyclic GMP (cGMP standard from Enzo cGMP complete ELISA kit) was added to the positive control plasma at a final concentration of additional 40 nM. Positive Control and Spiked-in Control plasma were aliquoted and stored at −80° C.
The cGMP content was measured using the Enzo cGMP complete ELISA kit following the manufacturer's directions with modifications as described below. The cGMP standards provided in the kit were diluted 1:3 ranging from 50 nM to 0.023 nM in 1× assay buffer that was diluted in water from 2× assay buffer provided in the kit. The cGMP standards ([…]) were transferred to a 96-well polypropylene plate (Thermo Scientific, cat no. 442587).
Plasma samples were thawed from −80° C. and diluted 1:20 in 1× assay buffer in the above plate with a final volume of 150 μL. Assay buffer was added (150 μL) for both a non-specific binding control (in the absence of cGMP antibody) and a maximum binding control (in the absence of competing cGMP) in duplicate wells. Positive Control and Spiked-in Control plasma were diluted 1:20 in 1× assay buffer with a final volume of 150 μL in duplicate wells of the above plate. All diluted plasma was mixed by pipetting up and down several times.
Acetylation reagent mix was prepared by adding 1-part of acetic anhydride into 2-parts of triethylamine provided in the kit and mixing well using Vortex (Scientific Industries, Inc, Bohemia, NY). All controls, standards, and plasma samples were acetylated by adding 15 μL of acetylation reagent mix into the plate, one column at a time, and shaking for 1 min on a Titer Plate Shaker (Lab-Line Instrument, Inc., Melrose Park, IL) at room temperature. The plate was shaken for an additional 1 min following the acetylation of the last column to ensure the reaction was completed.
Acetylated controls, standard and plasma samples were transferred (100 μL) to an ELISA plate (n=1). Then 50 μL of cGMP conjugate were added to each well followed by the addition of 50 μL cGMP antibody to each well except for two non-specific binding wells, in which 50 μL of 1× assay buffer were added. The plate was then sealed and shaken for 2 h at room temperature on the plate shaker. Following this incubation, the plate was washed five times using 200 μL of 1× wash buffer diluted in water from 5× wash buffer provided in the kit. Then, 200 μL of para-Nitrophenylphosphate (pNpp) were added to each well. The plate was sealed with a new plate sealer and shaken in dark for 1 h at room temperature on the plate shaker. Finally, 50 μL of stop solution were added to each well to stop the enzyme reaction. The plate was then read at 405 nm using SpectraMax Plus (Molecular Devices, San Jose, CA).
The mean absorbance at 405 nm (O.D. 405 nm) for the non-specific binding controls was subtracted from the O.D. 405 nm of all samples. The subtracted O.D. 405 nm of all samples were then normalized with the mean subtracted O.D. 405 nm of the maximum binding controls as B/B0%. […]

Molecule: {C20 diacid-γGlu}-EKEKEKGEKPRSSCFG[Dap]RIDRIGHYSGLGCPSFRHGSPSSGAPPPS-NH2 (linker 14-30 via CH2) [Example 136]
- Net cGMP (nM) Change from Baseline 0.083 h (dose 50 nmol/kg): 3.25 nM
- Net cGMP (nM) Change from Baseline 0.25 h (dose 50 nmol/kg): 12.48 nM
- Net cGMP (nM) Change from Baseline 0.5 h (dose 50 nmol/kg): 20.78 nM
- Net cGMP (nM) Change from Baseline 1 h (dose 50 nmol/kg): 12.12 nM
- Net cGMP (nM) Change from Baseline 2 h (dose 50 nmol/kg): 9.42 nM
- Net cGMP (nM) Change from Baseline 4 h (dose 50 nmol/kg): 8.76 nM
- Net cGMP (nM) Change from Baseline 8 h (dose 50 nmol/kg): 7.65 nM
- Net cGMP (nM) Change from Baseline 12 h (dose 50 nmol/kg): 7.65 nM
- Net cGMP (nM) Change from Baseline 24 h (dose 50 nmol/kg): 11.83 nM
- Net cGMP (nM) Change from Baseline 36 h (dose 50 nmol/kg): 11.18 nM
- Net cGMP (nM) Change from Baseline 48 h (dose 50 nmol/kg): 5.65 nM
- Net cGMP (nM) Change from Baseline 72 h (dose 50 nmol/kg): 2.61 nM
- Net cGMP (nM) Change from Baseline 96 h (dose 50 nmol/kg): 2.05 nM
- Net cGMP (nM) Change from Baseline 120 h (dose 50 nmol/kg): 2.71 nM
- Net cGMP (nM) Change from Baseline 144 h (dose 50 nmol/kg): 3.72 nM
- Net cGMP (nM) Change from Baseline 168 h (dose 50 nmol/kg): 3.36 nM
- net cGMP levels (result in words): increased net cGMP levels

Molecule: CC[C@H](C)[C@@H]1NC(=O)[C@H](CCCNC(=N)N)NC(=O)[C@H](CC(=O)O)NC(=O)[C@H]([C@@H](C)CC)NC(=O)[C@H](CCCNC(=N)N)NC(=O)[C@H](CCCCN)NC(=O)CNC(=O)[C@H](Cc2ccccc2)NC(=O)[C@@H](NC(=O)[C@H](CO)NC(=O)[C@H](CO)NC(=O)[C@H](CCCNC(=N)N)NC(=O)CCNC(=O)[C@H](CCCCN)NC(=O)[C@H](CCC(=O)O)NC(=O)COCCOCCNC(=O)COCCOCCNC(=O)COCCOCCNC(=O)COCCOCCNC(=O)COCCOCCNC(=O)COCCOCCNC(=O)CNC(=O)[C@H](CCCCN)NC(=O)[C@H](CCC(=O)O)NC(=O)[C@H](CCCCN)NC(=O)[C@H](CCC(=O)O)NC(=O)[C@H](CCCCN)NC(=O)[C@H](CCC(=O)O)NC(=O)CC[C@H](NC(=O)CCCCCCCCCCCCCCCCCCC(=O)O)C(=O)O)CSCSC[C@@H](C(=O)N2CCC[C@H]2C(=O)N[C@@H](CO)C(=O)N[C@@H](Cc2ccccc2)C(=O)N[C@@H](CCCNC(=N)N)C(=O)N[C@@H](Cc2c[nH]cn2)C(=O)NCC(=O)NCC(=O)N[C@@H](CCCCN)C(=O)N[C@@H](CO)C(=O)N[C@@H](CO)C(=O)NCC(=O)N[C@@H](C)C(=O)N2CCC[C@H]2C(=O)N2CCC[C@H]2C(=O)N2CCC[C@H]2C(=O)N[C@@H](CO)C(N)=O)NC(=O)CNC(=O)[C@H](CC(C)C)NC(=O)CNC(=O)[C@H](CO)NC(=O)[C@H](CCC(N)=O)NC(=O)[C@H](Cc2c[nH]cn2)NC(=O)CNC1=O [Example 89]
- Net cGMP (nM) Change from Baseline 0.083 h (dose 100 nmol/kg): 6.83 nM
- Net cGMP (nM) Change from Baseline 0.25 h (dose 100 nmol/kg): 20.73 nM
- Net cGMP (nM) Change from Baseline 0.5 h (dose 100 nmol/kg): 33.07 nM
- Net cGMP (nM) Change from Baseline 1 h (dose 100 nmol/kg): 35.04 nM
- Net cGMP (nM) Change from Baseline 2 h (dose 100 nmol/kg): 36.11 nM
- Net cGMP (nM) Change from Baseline 4 h (dose 100 nmol/kg): 42.86 nM
- Net cGMP (nM) Change from Baseline 8 h (dose 100 nmol/kg): 36.71 nM
- Net cGMP (nM) Change from Baseline 12 h (dose 100 nmol/kg): 33.87 nM
- Net cGMP (nM) Change from Baseline 24 h (dose 100 nmol/kg): 30.9 nM
- Net cGMP (nM) Change from Baseline 36 h (dose 100 nmol/kg): 24.59 nM
- Net cGMP (nM) Change from Baseline 48 h (dose 100 nmol/kg): 16.29 nM
- Net cGMP (nM) Change from Baseline 72 h (dose 100 nmol/kg): 15.56 nM
- Net cGMP (nM) Change from Baseline 96 h (dose 100 nmol/kg): 12.74 nM
- Net cGMP (nM) Change from Baseline 120 h (dose 100 nmol/kg): 18.95 nM
- Net cGMP (nM) Change from Baseline 144 h (dose 100 nmol/kg): 12.03 nM
- Net cGMP (nM) Change from Baseline 168 h (dose 100 nmol/kg): 8.03 nM
- net cGMP levels (result in words): increased net cGMP levels
